From patent US10299475B2, “Pesticide” (ISHIHARA SANGYO KAISHA, LTD., priority 2013, dated 2019)

These molecules were tested on Haemaphysalis longicornis (larvae) (assay: Test for examining effect on Haemaphysalis longicornis (larvae), coated vial contact test). Details: 100 ppm solution coated on plastic vial, 20 larvae, 24 hours after contact, 25° C., constant dark, relative humidity 80-100%.
Format: in vivo
Source text: Test for Examining Effect on Haemaphysalis longicornis (larvae)
Molecule `CC(C)CNC(=O)c1ccc(CCOc2cccc(Br)c2)cc1` [1-9, N-isobutyl-4-(2-(3-bromophenoxy)ethyl)benzamide] has a mortality at 100 ppm of at least 90%. `CC(C)CNC(=O)c1ccc(CCOc2cccc(OC(F)(F)F)c2)cc1` [1-24, N-isobutyl-4-(2-(3-(trifluoromethoxy)phenoxy)ethyl)benzamide] showed a mortality at 100 ppm of at least 90%. `CC(C)CNC(=O)c1ccc(CCOc2ccc(OC(F)(F)F)cc2)cc1` [1-25, N-isobutyl-4-(2-(4-(trifluoromethoxy)phenoxy)ethyl)benzamide] showed a mortality at 100 ppm of at least 90%. Work on `CC(C)CNC(=O)c1ccc(CCOc2ccc(Cl)c(I)c2)cc1` [1-326, N-isobutyl-4-(2-(4-chloro-3-iodophenoxy)ethyl)benzamide] yielded a mortality at 100 ppm of at least 90%. In the case of `CC(C)CNC(=O)c1ccc(CCOc2ccc(F)c(-c3ccccc3)c2)cc1` [4-6, N-isobutyl-4-(2-(4-fluoro-3-phenylphenoxy)ethyl)benzamide], the mortality at 100 ppm was at least 90%. In the case of `CC(C)CNC(=O)c1ccc(CCOc2ccc(Cl)c(-c3ccc(Cl)cc3)c2)cc1` [4-115, N-isobutyl-4-(2-(4-chloro-3-(4-chlorophenyl)phenoxy)ethyl)benzamide], the mortality at 100 ppm was at least 90%. For `CC(C)CNC(=O)c1ccc(CCOc2cccc(-c3ccc(Cl)cc3Cl)c2)cc1` [4-187, N-isobutyl-4-(2-(3-(2,4-dichlorophenyl)phenoxy)ethyl)benzamide], the mortality at 100 ppm was at least 90%.
